According to ChEMBL document CHEMBL1201862, “PubChem BioAssay data set” (2004):
Where “and” joins values, the source holds several entries; their conditions need not be identical. Equal values may be shown once. Calls of active or inactive are those of the source.

Columns and labels:
[1] = molecular target: Peroxisome proliferator-activated receptor gamma (Homo sapiens, UniProt P37231); assay: PPARg transcriptional activation, reporter cells – cell-based, luminescence, assay provider, dose response (AID 504447); type: functional
[2] = molecular target: T1, Heat shock factor protein 1 (Mus musculus, UniProt P38532); assay: decrease of HSF1-responsive luciferase luminescence – cell-based, NIH3T3, dose retest, confirmation (AID 2382); type: functional;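 further: NIH3T3 fibroblasts with HSF1-driven luciferase reporter stressed by proteasome inhibitor MG132; luminescence from HSF1-driven luciferase expression after 8 hours of MG132 stress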
T1 sequence (P38532 whole entry): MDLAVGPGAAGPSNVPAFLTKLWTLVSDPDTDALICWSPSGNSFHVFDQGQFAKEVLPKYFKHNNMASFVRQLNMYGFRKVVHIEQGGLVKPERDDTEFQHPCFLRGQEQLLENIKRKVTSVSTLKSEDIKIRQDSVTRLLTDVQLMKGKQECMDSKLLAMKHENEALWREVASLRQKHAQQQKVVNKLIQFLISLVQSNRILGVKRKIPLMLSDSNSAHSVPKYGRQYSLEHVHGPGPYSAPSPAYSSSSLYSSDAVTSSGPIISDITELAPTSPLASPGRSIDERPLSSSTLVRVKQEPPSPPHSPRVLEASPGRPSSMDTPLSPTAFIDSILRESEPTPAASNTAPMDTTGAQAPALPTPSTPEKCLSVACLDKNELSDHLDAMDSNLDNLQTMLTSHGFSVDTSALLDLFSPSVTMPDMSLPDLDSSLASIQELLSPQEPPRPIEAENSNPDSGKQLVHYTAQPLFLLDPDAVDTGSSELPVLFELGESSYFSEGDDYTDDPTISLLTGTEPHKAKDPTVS

Coagulation factor XII = molecular target: T2, Coagulation factor XII (Homo sapiens, UniProt P00748); assay: Factor XIIa Dose Response Confirmation from Single Well HTS. [Related pubchem assays (depositor defined):AID701]; type: functional
T2 sequence (P00748 whole entry): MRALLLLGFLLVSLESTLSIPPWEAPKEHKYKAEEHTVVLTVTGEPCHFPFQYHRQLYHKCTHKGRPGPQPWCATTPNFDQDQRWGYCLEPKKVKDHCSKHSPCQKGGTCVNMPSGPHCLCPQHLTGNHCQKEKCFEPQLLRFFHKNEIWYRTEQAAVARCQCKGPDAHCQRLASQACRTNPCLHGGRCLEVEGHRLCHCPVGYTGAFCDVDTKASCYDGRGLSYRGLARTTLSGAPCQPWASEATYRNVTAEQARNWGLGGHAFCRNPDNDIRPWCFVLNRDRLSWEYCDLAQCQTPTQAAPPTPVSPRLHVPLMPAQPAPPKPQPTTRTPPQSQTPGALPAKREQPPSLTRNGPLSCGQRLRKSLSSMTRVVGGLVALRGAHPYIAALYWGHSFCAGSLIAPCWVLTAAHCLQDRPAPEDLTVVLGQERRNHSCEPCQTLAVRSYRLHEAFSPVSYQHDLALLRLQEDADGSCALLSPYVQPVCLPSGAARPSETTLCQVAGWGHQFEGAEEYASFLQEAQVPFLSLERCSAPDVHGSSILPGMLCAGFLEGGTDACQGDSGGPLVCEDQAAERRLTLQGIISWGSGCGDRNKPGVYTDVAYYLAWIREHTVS

Hexokinase-1 = Hexokinase-1 (Homo sapiens, UniProt P19367); assay: HK1 enzyme activation by HKDC1 hits – biochemical, selectivity assay for HKDC1 activator project, dose response (AID 504762); type: functional
Hexokinase HKDC1 = Hexokinase HKDC1 (Homo sapiens, UniProt Q2TB90); assay: activation of HKDC1 glucose phosphorylation – biochemical, W721R variant, dose response (AID 504730); type: functional
Nonstructural protein 1 = Nonstructural protein 1 (Influenza A virus, UniProt Q194T2); type: functional, Influenza A virus (A/California/07/2009(H1N1))
[3] = molecular target: Heat shock protein HSP 90-alpha (Homo sapiens, UniProt P07900); type: functional, organism-based
[4] = molecular target: Voltage-dependent T-type calcium channel subunit alpha-1H (Homo sapiens, UniProt O95180); assay: human CACNA1H calcium influx blockade – cell-based, synthetic library set 1, calcium flux (AID 493022); type: functional
Troponin, cardiac muscle = Troponin, cardiac muscle (Homo sapiens, UniProt P19429+P45379+P63316); assay: Fluorescence-based biochemical high throughput dose response assay for activators of the calcium sensitivity of cardiac Regulated Thin Filaments (RTF). [Related pubchem assays (depositor defined):AID493008, AID493018, AID504382, AID504383]; type: protein-complex assay
[5] = molecular target: T3, Runt-related transcription factor 1/Core-binding factor subunit beta (Homo sapiens, UniProt Q01196+Q13951); assay: Runt domain/CBFb-SMMHC interaction disruptors – biochemical, TR-FRET (AID 1438); type: protein assay
[6] = molecular target: T3, Runt-related transcription factor 1/Core-binding factor subunit beta; assay: disruptors of Runt domain/CBFb-SMMHC interaction – biochemical, FRET, Cerulean-Runt, Venus-CBFb-SMMHC, uHTS, […] (AID 1434); type: protein assay
[7] = molecular target: T4, Alkaline phosphatase, tissue-nonspecific isozyme (Homo sapiens, UniProt P05186); assay: potency against alkaline phosphatase TNAP – biochemical, luminescent, dose response, SAR follow-up (AID 1056)
T4 sequence (P05186 whole entry): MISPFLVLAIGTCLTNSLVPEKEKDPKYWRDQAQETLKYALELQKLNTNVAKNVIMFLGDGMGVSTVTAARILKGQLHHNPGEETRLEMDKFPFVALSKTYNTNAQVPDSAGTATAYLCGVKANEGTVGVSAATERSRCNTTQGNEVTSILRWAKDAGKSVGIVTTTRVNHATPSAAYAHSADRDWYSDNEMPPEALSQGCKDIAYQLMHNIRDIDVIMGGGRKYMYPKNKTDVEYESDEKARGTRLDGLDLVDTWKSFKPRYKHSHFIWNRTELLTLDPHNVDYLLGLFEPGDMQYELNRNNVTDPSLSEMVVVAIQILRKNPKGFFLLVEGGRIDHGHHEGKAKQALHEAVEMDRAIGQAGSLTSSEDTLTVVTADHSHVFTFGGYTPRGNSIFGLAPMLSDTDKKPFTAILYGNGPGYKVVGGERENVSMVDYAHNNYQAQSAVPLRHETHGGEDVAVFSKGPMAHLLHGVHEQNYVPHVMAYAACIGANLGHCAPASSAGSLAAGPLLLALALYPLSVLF

[8] = molecular target: T4, Alkaline phosphatase, tissue-nonspecific isozyme; assay: SAR assay for compounds inhibiting TNAP in the absence of phosphate acceptor performed in a luminescent assay. [Related pubchem assays (depositor defined):AID1548, AID1659, AID518]
[9] = molecular target: Glyceraldehyde-3-phosphate dehydrogenase (Homo sapiens, UniProt P04406)
[10] = molecular target: Alkaline phosphatase, placental type (Homo sapiens, UniProt P05187); assay: human placental alkaline phosphatase inhibition – biochemical, luminescence, confirmation (AID 1512); type: functional

## Cc1cc(C(=O)CN2C(=O)C(=O)N(Cc3ccccc3)C2=O)c(C)n1-c1ccc2c(c1)OCCO2
[1]
  EC50: 15 µM (active)
[2]
  EC50: > 195 µM (not active)

## CC(C)CN(CC(C)C)S(=O)(=O)N1CCC(C(=O)NCCc2ccc(Cl)cc2)CC1
Coagulation factor XII
  IC50: > 50 µM (inactive)

## CC(=NNC(=S)Nc1cccc(C)c1)c1ccccn1
Hexokinase-1
  EC50: > 80 µM (inactive)
Hexokinase HKDC1
  EC50: 2.27 µM (active)
Nonstructural protein 1
  IC50: 8.54 µM (active)
[3]
  AC50: 2.25 µM (active)

## Cc1ccc(-c2nnc(NC(=O)C(C)(C)Oc3ccccc3)o2)cc1C
[4]
  EC50: 2.1 µM (active)

## Oc1[nH]nc(C(F)(F)F)c1/C=N/c1cccc(Cl)c1
Troponin, cardiac muscle
  EC50: > 71.5 µM (inactive)

## Cn1c(=O)c(/C=N/c2ccccc2)c(O)c2ccccc21
[5]
  IC50: > 100 µM (inactive)
[6]
  IC50: > 100 µM (inactive)

## COc1ccc(C)cc1S(=O)(=O)Nc1cccnc1
[7]
  IC50: 2.34 µM (active) and 1.6 µM (active)
[8]
  IC50: 16.6 µM (active) and 16.4 µM (active)
[9]
  IC50: > 100 µM (not active)
[10]
  IC50: > 100 µM (inactive)
